Reference: patent publication US20230099822A1, “MR1 LIGANDS AND PHARMACEUTICAL COMPOSITIONS FOR IMMUNOMODULATION” (UNIVERSITÄT BASEL, priority 2020, published 2023)
“And” between values parts separate entries of the source, which are not always exact repeats. Equal entries are not always repeated. “Also recorded” adds a separate entry of the source.

Legend:
[1] = target: T1, MR1 surface expression on THP-1 MR1 cells (Homo sapiens, UniProt Q95460); assay: Cell surface MR1 modulation on APCs (flow cytometry, anti-MR1 mAb 26.5); assay type: cell-based
T1 construct: expressed in transfected cells; host or cells: THP-1 (ATCC TIB-202) stably expressing MR1 (THP1-MR1)
T1 sequence (Q95460 23-341): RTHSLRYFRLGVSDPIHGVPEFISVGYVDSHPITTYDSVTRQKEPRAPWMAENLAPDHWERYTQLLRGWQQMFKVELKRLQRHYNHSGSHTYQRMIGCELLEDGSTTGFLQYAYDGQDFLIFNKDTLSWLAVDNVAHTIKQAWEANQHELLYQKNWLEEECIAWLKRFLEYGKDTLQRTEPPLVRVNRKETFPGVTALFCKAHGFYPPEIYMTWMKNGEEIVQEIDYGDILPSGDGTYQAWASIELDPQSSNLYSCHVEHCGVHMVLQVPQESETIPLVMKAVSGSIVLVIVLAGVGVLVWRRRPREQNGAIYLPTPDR
T1 sequence (P61769 21-119 partner): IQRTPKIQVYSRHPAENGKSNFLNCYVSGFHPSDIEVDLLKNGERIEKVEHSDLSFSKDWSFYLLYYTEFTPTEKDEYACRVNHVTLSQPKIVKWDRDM
Experimental: […] […] For each condition, net MFI was calculated subtracting isotype MFI from anti-MR1 MFI and fold change of cells treated with synthetic molecules over cells treated with vehicle was calculated.

[2] = test system: MR1T cell clones; assay: MR1T cell activation assay with THP-1 cells incubated with compounds (cytokine ELISA); assay type: cell-based, human
Experimental: MR1T cells (5×10^4/well unless otherwise indicated) were co-cultured with the indicated APCs (10^5 cells per well unless otherwise indicated) for 18 h in 120 μL volume in triplicate.
When nucleobases, nucleosides or nucleotides (all 250 μM) and synthetic compounds M3ADE, OPdA, M1G or OPdC were used to stimulate T cells, the THP-1 cells (10^5/well) were cultured 2 h with the indicated molecules or medium only, prior to T-cell addition. When a single concentration of synthetic antigens was used, 100 μM OPdA, 100 μM OPdC and 13 μM M1G were used for all clones, while 100 μM M3ADE was used for all clones except DGB129, AC1A4, AC1B76 and AVA46 for which 1 μM was used.

[3] = test system: tumor-infiltrating T cells from lung cancer biopsies; assay: Activation of MR1-M3ADE tetramer-sorted TIL lines; assay type: cell-based, human; conditions: A375-MR1 cells with or without M3ADE; TCR downregulation, IFN-γ
Experimental: Tissue biopsy samples derived from small cell lung tumors that were digested with media containing Accutase (Innovative Cell; Cat #AT-104), Collagenase IV 200 U/mL (Worthington; Cat #LS004189), DNAse I 0.5 mg/mL (Sigma-Aldrich Cat #D5025) and Hyaluronidase 50 mg/mL (Sigma; Cat #H6254) for 1 hour at 37° C. Digested material was passed through a […] cell strainer and erythrocytes were lysed before being frozen and stored in liquid nitrogen. After thawing, TILs were rested for 2 days prior to co-culture with A375-p2mKO-MR1 cells in a ratio of 1:1 and in the presence of 50 μM M3ADE. On day 5, human rIL-2 (5 U/mL) was added to the cultures for a further 5 days, and expansion in this manner was repeated 3 times. Cells were then stained with MR1-M3ADE tetramer, anti-CD3, anti-CD4 and anti-CD8 mAbs, and tetramer positive cells were sorted into a bulk line before functional experiments.
The inventors isolated TILs from non-small cell-lung-cancer biopsies from two patients and co-cultured them with A375-MR1 cells loaded with M3ADE, in order to expand MR1T cells. […] The inventors measured the extent of MR1T-cell activation via TCR downregulation, which occurred only in the presence of […] M3ADE-loaded A375-MR1 cells, and was prevented by anti-MR1 blocking mAbs (FIG. 14C, donor 840, and FIG. 14D, donor 895). […]

[4] = test system: MR1T cell clones; assay: MR1T cell activation assay with treated and fixed A375-MR1 cells; assay type: cell-based, human; conditions: 6 h incubation before fixation; clones TC5A87 and DGB129 (FIG. 9C, D)
[5] = test system: MR1T cell clones; assay: MR1T cell activation assay with drug-treated THP-1 cells; assay type: cell-based, human; conditions: THP-1 cells with Doxorubicin 75 nM or Paclitaxel 5 μM and nucleosides (dAdenosine and Guanosine, both 150 μM)
Experimental: MR1T cells (5×10^4/well unless otherwise indicated) were co-cultured with the indicated APCs (10^5 cells per well unless otherwise indicated) for 18 h in 120 μL volume in triplicate. In some experiments, anti-MR1 mAbs (clone 26.5, purified and endotoxin-free mouse IgG2a, (Lepore et al., 2014)) or mouse IgG2a isotype control mAbs (LEAF, Biolegend, Cat #401504) (both at 30 μg/mL) were added and incubated for 30 min at 37° C. prior to the addition of T cells.
In experiments with mycophenolic acid (10 μM), EHNA (25 μM), S-p-bromobenzylglutathione cyclopentyl diester (BBG, 20 μM) (all from Sigma-Aldrich), THP-1 cells (1×10^6/mL) were treated with the indicated concentrations of drugs in complete medium at 37° C. for 18 h before being washed twice with PBS, counted and used for T-cell activation. In experiments where THP-1 cells (1×10^6/mL) were treated with doxorubicin (75 nM) and paclitaxel (5 μM) (both from Sigma-Aldrich), the cells were incubated at 37° C. for 18 h before being washed twice with PBS, counted, and incubated for 2 h with vehicle or 150 μM dAdo and 150 μM guanosine (Sigma-Aldrich) prior to T-cell addition. In experiments where fixed A375-MR1 cells were used to activate MR1T cells, APCs (4×10^5/mL) were treated with apocynin (APO, 100 μM), L-glutathione reduced (GSH, 4 mM), N-acetyl cysteine (NAC, 4 mM), L-buthionine-sulfoximine (BSO, 400 μM) mercaptosuccinic acid (MSA, 3.3 μM), ML-210 (6 μM) or 1S,3R-RSL3 (RSL3, 1 μM), hydralazine hydrochloride (100 μM) or aminoguanidine hemisulfate salt (5 mM) for 18 h at 37° C. before being washed twice with PBS, fixed with glutaraldehyde, counted and used for MR1T cell stimulation.
The following human cytokines were assessed by ELISA using specific mAbs: GM-CSF (purified clone BVD2-23B6 and biotinylated clone BVD2-21C11, Biolegend Cat #502202 and 502304, respectively), IFN-γ (purified clone MD-1 and biotinylated clone 4S.B3, Biolegend Cat #507502 and 502504, respectively), IL-13 (purified clone JES10-5A2 and biotinylated clone SB126d, SouthernBiotech Cat #10125-01 and 15930-08, respectively).

[6] = test system: THP-1 cells; assay: ROS production measurement (CM-H2DCFDA); assay type: cell-based, human; conditions: 75 nM Doxorubicin or 5 μM Paclitaxel, 18 h (FIG. 17A)
Experimental: CM-H2DCFDA (Thermo Fisher Scientific) was used to assess ROS production in cell upon cell treatment with Doxorubicin and Paclitaxel. THP-1 cells ([…]) were labelled with 10 μM CM-H2DCFDA for 30 min at 37° C. in the dark, then washed with PBS and resuspended in complete medium. 10^5 cells were seeded per well and treated with 75 nM Doxorubicin, 5 μM Paclitaxel or vehicle for 18 h at 37° C. Phorbol 12-myristate 13-acetate (PMA, 50 ng/mL) was used as positive control.

[7] = test system: MAIT clone MRC25; assay: Control stimulation of MAIT clone MRC25; assay type: cell-based, human; conditions: drug-treated APCs; paclitaxel in presence of nucleosides (FIG. 16C-D)
Experimental: In some experiments, MAIT cells were stimulated by APCs pulsed 3 h with 5-OP-RU as previously described or with 30 μM 6,7-dimethyl-8-ribityllumazine (Cayman Chemical Cat #23370).

[8] = test system: MR1T cell clones AVA34, AC1A4 and MAIT clone MRC25; assay: MR1 tetramer staining of T cell clones; assay type: binding, human
Experimental: Correct protein conformation was confirmed by performing a plate-bound activation of the MR1T cell clone DGB129. Refolded MR1-compound protein was serially diluted in PBS (1.5-100 μg/mL) and added to a high-protein-binding plate (Nunc, Cat #439454) for 2 h at 37° C. The wells were washed thoroughly with PBS before addition of 5×10^4 cells that were left overnight at 37° C. IL-13 ELISA was then used as an activation readout. The functional monomer was then biotinylated using BirA-500 biotinylation kit (Avidity, Cat #Bulk BirA) overnight at 4° C. Excess biotin was removed using S75 10/30 (GE Healthcare, 29148721) gel filtration before tetramerization with phycoerythrin (PE) streptavidin (Prozyme, Cat #P JRS25) in a 4:1 molar ratio. As control MR1 tetramers, human MR1-5-OP-RU and human MR1-6-FP labelled with APC, PE or AlexaFluor488 were used (The MR1 tetramer technology was developed jointly by Dr. James McCluskey, Dr. Jamie Rossjohn, and Dr. David Fairlie, and the material was produced by the NIH Tetramer Core Facility as permitted to be distributed by the University of Melbourne). […]
Samples were acquired on LSR Fortessa flow cytometer with the FACS Diva software (Becton Dickinson). […] When PBMCs were analyzed, CD14^+ and CD19^+ cells were excluded by staining with fluorescent antibodies detected in the same channel as the Live/Dead staining. All data was analyzed using FlowJo (LLC).

[9] = test system: MR1T cell clones; assay: Activation assay with plate-bound soluble MR1; assay type: cell-based, human; conditions: IL-13 (FIG. 4)
Experimental: Recombinant human P2m-MR1-Fc was produced in CHO-K1 cells as previously described (Lepore et al., 2017) and 4 μg/mL were coated onto 96 wells plates (Nunc, Cat #439454) for 18 h at 4° C. Plate-bound MR1 was then washed twice with wash buffer (150 mM NaCl, 20 mM Tris and 2% Glycerol, pH 5.6) to remove bound antigens. Then, the synthetic antigens (M3ADE, OPdA, M1G and OPdC) were added at the indicated concentrations and incubated for 6 h at room temperature (RT). Unbound antigens were washed twice with PBS before the addition of excess PBS. In some experiments, bacteria-produced and refolded MR1-M3ADE protein was serially diluted in PBS and added to a high protein binding plate (Nunc, Cat #439454) for 2 h at 37° C. then washed twice and used in the stimulation assay. Indicated MR1T cell clones ([…]) were added and supernatants were collected after 18 h. Released cytokines were detected by ELISA. Recombinant human P2m-MR1-Fc was produced in CHO-K1 cells as previously described and 4 μg/mL were coated onto 96 wells plates. Antigens produced by CHO-K1 cells were removed by washing twice with wash buffer (150 mM NaCl, 20 mM Tris and 2% Glycerol, pH 5.6). […]
Correct protein conformation was confirmed by performing a plate-bound activation of the MR1T cell clone DGB129. […] IL-13 ELISA was then used as an activation readout. […]

For `O=CC1=COC2CC1C(C=O)=CN2c1ncnc2[nH]cnc12` (stereo not shown) [Cmpd 13, 8-(9H-purin-6-yl)-2-oxa-8-azabicyclo[3.3.1]nona-3,6-diene-4,6-dicarbaldehyde], the MRI upregulation ([1]; THP-1 MR1 cells, 3 h at 37° C., 3 doses each) was “YES”, the “cell surface MR1 upregulation on APCs (in words)” value ([1]; pulsed APC / THP1-MR1 cells) was “most efficient in increasing MR1 surface expression” and the “Reactive T cells isolated” value [2] was “YES”. For the same molecule, the “activation of MR1T clone AC1A4 by adduct” value [2] was “activated”, the “potency among the synthesized adducts” value [2] was “highest potency” and the “response to THP-1 cells when adduct added” value ([2]; M1G or M3ADE added to clones QY1A16 and QY1C3, respectively) was “significant decreased response”. For the same molecule, the “activation of MR1T clone AVA34 by compound” value ([2]; THP-1 / MR1+ APCs loaded with compound, listed as M3ADE) was “specifically activated; also recorded: reacted”, the “number of MR1T clones significantly stimulated” value ([2]; fourteen randomly selected MR1T clones, THP-1 cells, IFN-γ (FIG. 12B), listed as M3ADE) was “six and 6/14” and the “IL-13 release by AVA34 cells” value ([2]; toward THP-1 cells in the presence of compound (FIG. 5b)) was “IL-13 release”. The “reactivity of tetramer-positive TIL cells, donor 895” value [3] was “reacted only to M3ADE-loaded A375-MR1 cells” and the “reactivity of tetramer-positive TIL cells, donor #840” value [3] was “irrespective of the presence of M3ADE”.
`O=CC[C@@H](O)[C@H](O)[C@H](O)CO` [deoxyglucose, 2-deoxy-D-Glucose] was tested, and the “MR1T-cell stimulatory capacity of pulsed and fixed A375-MR1 cells” value [4] was “abolished”.
In the case of `COc1cccc2c1C(=O)c1c(O)c3c(c(O)c1C2=O)C[C@@](O)(C(=O)CO)C[C@@H]3O[C@H]1C[C@H](N)[C@H](O)[C@H](C)O1` [doxorubicin, Doxorubicin], the “activation of MR1T-cell clones TC5A87, DGB129, MCA3C3” value [5] is reported as “promoted activation of all three MR1T-cell clones” and the ROS accumulation [6] is reported as “significantly increased ROS accumulation”.
In the case of `CC(=O)O[C@H]1C(=O)[C@@]2(C)[C@H]([C@H](OC(=O)c3ccccc3)[C@]3(O)C[C@H](OC(=O)[C@H](O)[C@@H](NC(=O)c4ccccc4)c4ccccc4)C(C)=C1C3(C)C)[C@]1(OC(C)=O)CO[C@@H]1C[C@@H]2O` [paclitaxel, Paclitaxel], the “activation of MR1T-cell clones TC5A87, DGB129, MCA3C3” value [5] is reported as “promoted activation of all three MR1T-cell clones”, the MAIT-cell response [7] is reported as “little but significant stimulation” and the ROS accumulation [6] is reported as “significantly increased ROS accumulation”.
With “MR1-6-FP tetramers: control MR1 tetramer, human MR1-6-FP, produced by the NIH Tetramer Core Facility” the “tetramer staining of MR1T clone AVA34” value [8] was “not”.
In the case of “MR1-M3ADE monomers: human recombinant soluble MR1 refolded in vitro in the presence of M3ADE”, the “stimulation of clone DGB129 by refolded MR1-M3ADE monomers” value [9] is reported as “stimulated”.
